Source: US20030077653A1, “Method for the identification of active site protease inactivators” (The University of Georgia Research Foundation, Inc., priority 2000, published 2003)
“Also recorded” adds a separate entry of the source. Starred links: 1 amine or outer side, 2 acyl side, 3 side chain; linkers in the order of their positions; H or OH if unused. Residues, ends and D or L forms follow the SMILES beside them. *: point of attachment. AFC = O=c1cc(C(F)(F)F)c2ccc(N*)cc2o1; Morpholide = C1CN(*)CCO1; Cbz = O=C(OCc1ccccc1)*; CO = O=C([*:1])[*:2]; CH2F = FC*

Assays:
Taenia crassiceps cysts [1] = assay: Scanning electron microscopy of surfaces of cysts removed from treated mice; type: in vivo
Text: FIG. 9. Scanning electron microscopy of the surface of cysts removed from untreated mice versus cysts removed from treated mice. Magnifications are identical for both slides in each panel. panel A (4000×). […] No immune cells were seen on cysts removed from untreated mice. Panel B (25,000×). […] Microtriches in untreated cysts can be seen to be visibly longer. Visible anchors were also noted for the untreated cysts group, whereas these anchors were not observed in microtriches from treated cysts.
For example, we hypothesized that the cysteine protease was a key parasitic molecule to allow the cyst to evade the host immune response, by cleaving host antibodies. By inhibiting the Taenia cysteine protease with Z-LLY-FMK, we hypothesized that host immunoglobulin could now bind the parasites, and initiate immunological responses (e.g., complement via IgG2a) which would cause damage to the cyst wall. […] We identified macrophages, neutrophils, fibroblasts, and collagenous deposits on the cyst surfaces from treated mice, in comparison to their absence on cysts from untreated mice. General surface atrophy was also apparent. […] Breaks in the integrity of the cyst surface were also noted for the cysts removed from treated mice. […] Cysts removed from untreated mice were characterized by no immune cells, intact and longer microtriches, and homogeneity of the cyst surface.

[2] = Observation of side effects in treated mice; type: in vivo; settings: BALB/c mice; for side effects in mice, long-term study: 30 days treatment, 5 months follow-up
Procedure: (§1) FIG. 8. […] Each treated mouse was pre-injected intraperitoneally with inhibitor for two days. During treatment phase, each treated mouse received 1.48×10^−2 μg/μl of N2 daily for three weeks and every other day during the last week. Injections were carried out in 150 μl of dimethyl sulfoxide for each mouse. Both treated groups and positive controls were challenged intraperitoneally with 10 Taenia crassiceps cysts in 200 μl 0.15M PBS at the time of initial infection. After one month of infection, both groups were euthanized and cysts removed by washing with sterile 0.15M PBS. A minimum of two attached cysts were scored as multilobed (ML). […] (B) Graphically represents the effect of protease inhibitor treatment of BALB/c mice challenged with Taenia crassiceps cysts over a long-term period. Mice were divided into treated and untreated groups (5 mice/group).Each mouse in the treated group was pre-injected intraperitoneally with inhibitor for two days. Subsequently, all groups were challenged with 10 T. crassiceps cysts in 200 μl of 0.15M PBS. Treatment with inhibitor or placebo (0.15M PBS) was carried out every day for 30 days post-challenge. Cysts were left alone (untreated) for 5 months, and then euthanized. Cysts were then counted by visual inspection. Percent protection is based on the reduction of the total cyst number in comparison to control mice, which never received any treatment.
(§2) Mice in all groups survived without noticeable side effects (e.g., coat condition, tail dragging or paresis, etc).
Long-term studies were also conducted to determine over how long a period these inhibitors would maintain a protective effect. In a representative experiment shown here, mice were divided into treated and untreated groups (5 mice/group). Each mouse in the treated group was pre-injected intraperitoneally with inhibitor for two days. Subsequently, all groups were challenged with 10 T. crassiceps cysts in 200 μl 0.1 5M PBS. Treatment with inhibitor or placebo (0. 15M PBS) was carried out every day for 30 days post- challenge. […] Cysts were then counted by visual inspection. […]

[3] = system: purified Taenia solium cysteine protease; assay: Screen of AFC-linked synthetic substrates for cleavage (Step II); type: biochemical; settings: pH 4.9, 18 h, 37° C
Procedure: In this step, the most efficacious substrate for detection of the cysteine protease (high Kcat substrate) was determined in vitro along with those substrates which were not well cleaved (low kcat substrates). From this point forth, the following conditions refer to all assays: “assay buffer” refers to 0.4 M Citrate, pH 4.9 (the pH optima of the protease). Incubation time was 18 hours at 37° C. These conditions were determined by our preliminary data to be best for kinetic evaluation of the protease. […] The experiments were conducted in […] Borosilicate mini-culture tubes (Fisher Scientific), and a fluorometer (Turner) was employed for detection of AFC cleavage.
Approximately 1 ug (or a proteolytically detectable amount) of the purified target cysteine protease was incubated individually, with 1 μg of each of the available substrates in 500 μL of assay buffer. During this setup, the substrate was pre-incubated in the assay buffer for a short period of time (20 minutes) in order to reach an equilibrated status before the addition of the protease. Cleavage assessments were based upon the property of the protease to cleave synthetic peptide substrates linked at the C-terminus to 7-Amino-4-Trifluoromethyl Coumarin (AFC) as previously described. AFC linked tripeptides, dipeptides, and monopeptides, (with a variety of permutations at P3-P1) were available from Enzyme Systems Products (Livermore, CA), and were used as the source of the subset. Following incubation of enzyme preparations overnight (18 h, 37 ° C.) with peptide in assay buffer (Citrate, pH 4.9, supplemented with 0.01 M cysteine), free AFC concentrations were measured fluorometrically (excitation […]). The proteolytic cleavage released the AFC group, which was measurable as a free molecule by a standard fluorometer and converted into molar quantities, based upon a previously established standard curve. The simplicity of AFC detection by the fluorometer was a key factor which quickened and simplified the procedures.
In the assay, 1 ug of the purified Taenia cysteine protease was added to a saturating amount of Z-Phe-Arg-AFC (4×10^−5 M) in assay buffer. The experiment was conducted in triplicate and repeated at least 5 times until we were certain that variability in AFC cleavage was not statistically significant.
Vmax was calculated for the cleavage of substrates by the purified target protease and Vmax was calculated for substrates cleaved by the crude mix protease using conventional kinetic modeling calculations already described in the art.

Taenia crassiceps cysts [4] = assay: Short-term prophylactic protection of BALB/c mice from cysticercosis infection; type: in vivo; settings: pre-injected two days, 10 T. crassiceps cysts/mouse, dosed daily four weeks, intraperitoneal; vs untreated controls
Procedure: as §1, with “Subsequently, all groups were challenged with 10 T. crassiceps cysts in 200 μl of 0.15M PBS. Treatment with inhibitor or placebo (0.15M PBS) was carried out every day for 30 days post-challenge. Cysts were left alone (untreated) for 5 months, and then euthanized.” left out, “Percent protection is based on the reduction of the total cyst number in comparison to control mice, which never received any treatment.” left out
Based upon the premise that the cyst wall cysteine protease may serve a critical finction to the life cycle of the Taenia cyst, we tested our most efficacious inhibitors, LLL-FMK and LLY-FMK (K-Pyr was used as a control), for their abilities to protect mice from cysticercosis infection. […] After one month, the mice were euthanized and the cysts counted. […]

T crassiceps cysts = assay: Therapeutic study in BALB/c mice infected with T crassiceps cysts; type: in vivo, Taenia crassiceps; settings: inhibitor treatment began two weeks after infection
Text: as §2

Compound	Immune cells observed by SEM on cyst surfaces (Taenia crassiceps cysts [1])	side effects in mice, long-term study [2]	side effects / inhibitor toxicity in mice, short-term studies ([2]; one month, visual inspection)	cleavage as substrate (Vmax) [3]	% Prophylactic protection of BALB/c mice (Taenia crassiceps cysts [4]) [%]	% Therapeutic protection of BALB/c mice (T crassiceps cysts) [%]
CC(C)C[C@H](NC(=O)OCc1ccccc1)C(=O)N[C@@H](CC(C)C)C(=O)N[C@@H](Cc1ccc(O)cc1)C(=O)CF [Z-LLY-FMK, Z-Leu-Leu-Tyr-FMK] (Cbz-Leu-Leu-Tyr-CH2F)	vigorous host immune response; also recorded: presence of adherent immune cells; also recorded: Intense	no side effects	no mice showed effects of inhibitor toxicity	–	–	–
CC(C)C[C@H](NC(=O)N1CCOCC1)C(=O)N[C@@H](Cc1ccc(O)cc1)C(=O)Nc1ccc2c(C(F)(F)F)cc(=O)oc2c1 [Mu-LY-AFC, Mu-Leu-Tyr-AFC] ({Morpholide-CO}-Leu-Tyr-{AFC})	–	–	–	noncleavable	–	–
CC(C)C[C@H](NC(=O)[C@H](CC(C)C)NC(=O)[C@H](CC(C)C)NC(=O)OCc1ccccc1)C(=O)CF [Z-LLL-FMK, Z-Leu-Leu-Leu-fluoromethylketone] (Cbz-Leu-Leu-Leu-CH2F)	–	no side effects	–	–	100	60
